# In publication PMC4180945 (Tetrahedron, 2014):
# How the values were obtained:
# [1] = target: T1, protein-tyrosine phosphatase 1B (PTP1B) (Homo sapiens, UniProt P18031); experiment: Selectivity binding to arbitrarily selected protein: PTP1B
# T1 sequence (P18031 1-435): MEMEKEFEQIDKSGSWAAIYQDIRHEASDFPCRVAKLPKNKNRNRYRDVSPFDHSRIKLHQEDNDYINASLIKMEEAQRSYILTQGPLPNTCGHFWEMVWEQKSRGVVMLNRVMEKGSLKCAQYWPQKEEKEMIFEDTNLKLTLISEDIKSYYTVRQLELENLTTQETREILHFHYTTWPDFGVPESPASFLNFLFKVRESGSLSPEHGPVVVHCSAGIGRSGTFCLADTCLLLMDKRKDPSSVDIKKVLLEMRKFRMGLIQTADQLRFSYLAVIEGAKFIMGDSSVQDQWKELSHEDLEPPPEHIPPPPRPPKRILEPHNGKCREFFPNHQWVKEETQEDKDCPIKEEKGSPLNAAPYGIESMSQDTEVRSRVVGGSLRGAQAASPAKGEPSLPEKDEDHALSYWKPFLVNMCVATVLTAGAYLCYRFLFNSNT
# [2] = target: bovine serum albumin (BSA) (Bos taurus, UniProt P02769); experiment: Selectivity binding to arbitrarily selected protein: BSA
# Chain of bovine serum albumin (BSA) (P02769 25-607): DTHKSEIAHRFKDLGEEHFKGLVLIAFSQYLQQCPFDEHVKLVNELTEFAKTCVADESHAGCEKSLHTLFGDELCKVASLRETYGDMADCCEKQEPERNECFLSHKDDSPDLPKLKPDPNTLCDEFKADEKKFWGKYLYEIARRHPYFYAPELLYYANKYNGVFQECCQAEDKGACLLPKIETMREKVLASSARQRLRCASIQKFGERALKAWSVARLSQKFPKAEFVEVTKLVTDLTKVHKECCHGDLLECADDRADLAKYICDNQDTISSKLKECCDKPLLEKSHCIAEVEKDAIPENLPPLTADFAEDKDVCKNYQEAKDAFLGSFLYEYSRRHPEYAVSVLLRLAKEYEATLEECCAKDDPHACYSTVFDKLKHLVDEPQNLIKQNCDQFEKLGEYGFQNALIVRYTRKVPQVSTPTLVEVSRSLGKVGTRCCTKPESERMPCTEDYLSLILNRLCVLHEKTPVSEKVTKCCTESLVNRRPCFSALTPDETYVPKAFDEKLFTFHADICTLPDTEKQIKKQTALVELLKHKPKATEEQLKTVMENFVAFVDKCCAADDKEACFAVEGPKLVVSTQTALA
# [3] = target: maltose-binding protein-XIAP BIR3 domain fusion (MBP-BIR3) (Homo sapiens, UniProt P98170); experiment: Selectivity binding to arbitrarily selected protein: MBP-BIR3
# Chain of maltose-binding protein-XIAP BIR3 domain fusion (MBP-BIR3) (P98170 241-356 limits assumed): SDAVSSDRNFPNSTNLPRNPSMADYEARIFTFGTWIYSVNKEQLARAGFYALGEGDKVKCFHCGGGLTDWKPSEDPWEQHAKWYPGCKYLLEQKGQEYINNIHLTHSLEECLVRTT
# [4] = target: GST-FKBP12 fusion protein (Homo sapiens, UniProt P62942); experiment: Selectivity binding to arbitrarily selected protein: GST-FKBP12
# Chain of GST-FKBP12 fusion protein (P62942 whole entry, the tested form may be a part): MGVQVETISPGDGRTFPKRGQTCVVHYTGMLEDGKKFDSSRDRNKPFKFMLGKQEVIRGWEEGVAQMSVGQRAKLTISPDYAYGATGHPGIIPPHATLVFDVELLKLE
# [5] = target: T2, GST-SHD SH2 domain fusion protein (Homo sapiens, UniProt Q96IW2); experiment: Selectivity binding to arbitrarily selected protein: GST-SHD SH2
# T2 sequence (Q96IW2 240-335 limits assumed): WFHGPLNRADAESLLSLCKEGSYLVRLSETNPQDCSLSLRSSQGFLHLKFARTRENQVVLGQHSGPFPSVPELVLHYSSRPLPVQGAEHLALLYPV
substance,measurement,setting,value
Trp-phe-Asp-Lys-phe-asn-His-Dap [Peptide 38],Binding to PTP1B,[1],no binding
same,Fold higher KD for BSA than that of K-Ras,[2],47-120 fold
same,Fold higher KD for MBP-BIR3 than that of K-Ras,[3],47-120 fold
same,Binding to GST-FKBP12,[4],no binding
same,Fold higher KD for GST-SHD SH2 than that of K-Ras,[5],47-120 fold
